{"source": "patent US20110274763A1", "about": "“Slow releasing microcapsules and microspheres containing an active substance” (priority 2009, published 2011)", "key": {"[1]": {"assay": "IPBC release from painted surfaces immersed in water (14C, liquid scintillation)", "format": "physicochemical", "conditions": "water-based paint; 0.1% IPBC in wet paint; microspheres with 10% and 25% loading; plates in 250 ml water", "experimental": "Three different 10 g paint samples were prepared. […] A specific fraction of the IPBC was ^14C-labelled material. Wet paint contained in total 0.1% IPBC. Stirring the paint assured homogeneous dispersion of the added substance. […] The containers were placed on a mechanical shaker. […] The release of free IPBC is about three times faster than that from microspheres."}, "[2]": {"conditions": "plates in 2000 ml water, 0.4% medetomidine in wet paint", "experimental": "Four different 30 g paint samples were prepared. Two of the samples were based on biocide-free and water-based standard white exterior wall paint, while the two other samples were based on biocide-free and organic solvent-based standard white exterior wall paint. Medetomidine was added to each sample, either in free form or the form of microspheres. ^14C-labelled material was 2.3% of all medetomidine. Wet paint contained in total 0.4% medetomidine. Stirring the paint with an electrical mixer assured homogeneous dispersion of the added substance. For the release studies, approximately 1 g (dry state) of the paint systems was applied on poly(propylene) plates using a paint applicator. After drying and weighing, each plate was vertically positioned in a closed container containing 2000 ml water that covered the plate. The containers were placed on a mechanical shaker. At various times 1000 μl water was pipetted out from each system and transferred to 20 ml tubes."}, "[3]": {"tested_on": "barnacles and other fouling organisms", "conditions": "0.1% by weight medetomidine or equivalent in marine paint; six and ten months of submersion in the sea, Swedish west coast", "procedure": "PMMA test panels 1 dm^2 was painted by brush with three different biocide free commercially available marine paints. 3 ml of paint were used for each layer and there were two layers applied on each panel. These panels were used as references. To the same paints in different cans were added 0.1% by weight of medetomidine or an equivalent amount of medetomidine encapsulated in microspheres. The paint mixtures were applied to the same kind of test panels as the reference paints. All panels were made in triplicates and mounted randomly on a frame for submersion into the sea on the Swedish west coast (Tjärnö Marine Biological Laboratory). After six months and ten months (June 2009 to December 2009 and in April 2010) of submersion they were inspected."}}, "note": "Like-named read-outs stand apart in the source and are kept apart here."}
{"compound": "CCCCNC(=O)OCC#CI", "note": "[free IPBC, 3-iodo-2-propynyl butylcarbamate]", "values": [{"measurement": "release of free IPBC compared with that from microspheres", "setting": "[1]", "result": "about three"}]}
{"compound": "Cc1cccc(C(C)c2cnc[nH]2)c1C", "note": "(stereo not shown) [medetomidine, 4-[1-(2,3-dimethylphenyl)ethyl]-3H-imidazole]", "values": [{"measurement": "release of free medetomidine compared with that from microspheres", "setting": "[2]; solvent-based paint", "result": "ten"}, {"measurement": "release of free medetomidine compared with that from microspheres", "setting": "[2]; water-based paint", "result": "about two"}, {"measurement": "barnacle / tubeworm attachment on painted panels", "setting": "[3]", "result": "no barnacles or tubeworms attached"}]}
